According to ChEMBL document CHEMBL2040810, “In search for new chemical entities as adenosine receptor ligands: development of agents based on benzo-γ-pyrone skeleton” (Eur J Med Chem, 2012):
Activity calls are given as the source filed them. The rule behind the calls is not given here.

Legend:
[1] = target: T1, Adenosine receptor A1 (Homo sapiens) (UniProt P30542); test: Displacement of [3H]DPCPX from human adenosine A1 receptor expressed in CHO cells at 10 uM after 60 mins by liquid scintillation counting; type: cell-based
T1 sequence (whole entry): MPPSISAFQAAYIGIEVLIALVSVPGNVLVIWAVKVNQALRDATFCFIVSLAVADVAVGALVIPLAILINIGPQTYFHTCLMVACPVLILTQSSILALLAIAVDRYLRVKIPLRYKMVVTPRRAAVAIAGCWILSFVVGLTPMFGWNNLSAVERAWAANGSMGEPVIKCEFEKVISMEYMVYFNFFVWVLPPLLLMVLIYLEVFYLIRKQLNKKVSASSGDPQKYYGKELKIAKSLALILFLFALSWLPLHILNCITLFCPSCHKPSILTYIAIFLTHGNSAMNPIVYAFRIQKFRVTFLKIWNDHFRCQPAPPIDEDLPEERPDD

Homo sapiens = organism: Homo sapiens; test: Selectivity ratio for human A2B adenosine receptor over human A3 adenosine receptor
[2] = target: Adenosine receptor A2a (Homo sapiens) (UniProt P29274); test: Displacement of [3H][…] from human adenosine A2A receptor expressed in HeLa cells at 10 uM after 30 mins by liquid scintillation counting; type: cell-based
Adenosine receptor A2a (Homo sapiens), sequence (P29274 whole entry): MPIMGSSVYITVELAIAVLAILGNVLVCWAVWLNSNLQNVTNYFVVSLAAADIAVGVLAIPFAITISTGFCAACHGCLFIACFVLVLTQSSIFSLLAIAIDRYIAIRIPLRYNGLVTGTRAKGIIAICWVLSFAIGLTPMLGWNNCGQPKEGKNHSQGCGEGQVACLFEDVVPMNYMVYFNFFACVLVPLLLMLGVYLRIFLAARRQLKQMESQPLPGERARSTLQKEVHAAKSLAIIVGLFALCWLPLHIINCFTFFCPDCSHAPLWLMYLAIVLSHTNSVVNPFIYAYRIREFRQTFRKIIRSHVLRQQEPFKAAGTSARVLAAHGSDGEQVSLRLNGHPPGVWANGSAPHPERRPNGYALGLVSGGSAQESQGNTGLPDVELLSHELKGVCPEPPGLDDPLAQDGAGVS

Adenosine receptor A2b = target: T2, Adenosine receptor A2b (Homo sapiens, UniProt P29275); test: Displacement of [3H]DPCPX from human adenosine A2B receptor expressed in HEK293 cells after 30 mins by liquid scintillation counting; type: cell-based
T2 sequence (P29275 whole entry): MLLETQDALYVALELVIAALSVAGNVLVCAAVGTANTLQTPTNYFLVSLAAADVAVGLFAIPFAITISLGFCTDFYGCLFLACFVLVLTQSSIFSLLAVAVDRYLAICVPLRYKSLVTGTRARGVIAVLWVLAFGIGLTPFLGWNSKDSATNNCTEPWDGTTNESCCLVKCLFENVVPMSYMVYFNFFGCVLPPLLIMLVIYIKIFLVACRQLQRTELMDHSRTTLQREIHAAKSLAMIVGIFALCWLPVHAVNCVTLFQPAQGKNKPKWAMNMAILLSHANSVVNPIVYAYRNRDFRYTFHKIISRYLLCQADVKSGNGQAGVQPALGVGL

[3] = target: T3, Adenosine receptor A2b (Homo sapiens) (UniProt P29275); test: Displacement of [3H]DPCPX from human adenosine A2B receptor expressed in HEK293 cells at 10 uM after 30 mins by liquid scintillation counting; type: cell-based
T3 sequence (whole entry): T2 sequence (P29275 whole entry)

[4] = target: T4, Adenosine receptor A3 (Homo sapiens) (UniProt P0DMS8); test: Displacement of [3H]NECA from human adenosine A3 receptor expressed in HeLa cells at 10 uM after 30 mins by liquid scintillation counting; type: cell-based
T4 sequence (whole entry): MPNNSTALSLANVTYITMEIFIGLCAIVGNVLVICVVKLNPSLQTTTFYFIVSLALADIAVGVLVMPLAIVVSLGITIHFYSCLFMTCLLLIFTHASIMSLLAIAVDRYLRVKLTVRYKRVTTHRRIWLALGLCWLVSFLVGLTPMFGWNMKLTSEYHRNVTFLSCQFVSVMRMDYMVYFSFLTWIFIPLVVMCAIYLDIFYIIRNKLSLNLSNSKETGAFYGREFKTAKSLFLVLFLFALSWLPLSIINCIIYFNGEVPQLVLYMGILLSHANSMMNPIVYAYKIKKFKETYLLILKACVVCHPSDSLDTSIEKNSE

Structure (SMILES)	Activity [1]	Selectivity ratio (Homo sapiens)	Activity [2]	Ki (Adenosine receptor A2b) [µM]	Activity [3]	Activity [4]
O=C(Nc1ccccc1)c1coc2ccccc2c1=O	3%	2	3%	8.51	> 50%	–
COc1ccc(NC(=O)c2coc3ccccc3c2=O)cc1OC	–	–	–	6.39	> 50%	–
COc1ccc(NC(=O)c2coc3ccccc3c2=O)cc1O	–	–	–	5.82	> 50%	–
COc1ccc(NC(=O)c2cc(=O)c3ccccc3o2)cc1O	Active	–	Active	–	Active	Active
O=C(Nc1ccc(O)cc1)c1coc2ccccc2c1=O	–	–	–	2.89	> 50%	–
O=C(Nc1ccc(O)c(O)c1)c1coc2ccccc2c1=O	–	–	–	1.35	> 50%	–
COc1ccc(NC(=O)c2cc(=O)c3ccccc3o2)cc1OC	Active	–	Active	–	Active	Active

Results, then the compound that gave them:

Activity [1]	Selectivity ratio (Homo sapiens)	Activity [2]	Ki (Adenosine receptor A2b) [µM]	Activity [3]	Activity [4]	Structure (SMILES)
Active	–	–	–	–	Active	O=C(O)c1cc(=O)c2ccccc2o1
Active	–	Active	–	Active	Active	O=C(Nc1ccccc1)c1cc(=O)c2ccccc2o1
Active	–	Active	–	Active	Active	O=C(Nc1ccc(O)c(O)c1)c1cc(=O)c2ccccc2o1
Active	–	Active	–	Active	Active	O=C(Nc1ccc(O)cc1)c1cc(=O)c2ccccc2o1
